ChEMBL document CHEMBL3430912, “GSK Tres Cantos Anti-Kinetoplastid Screening (TCAKS) Data”

How the values were obtained:
[1] = test system: Trypanosoma cruzi; assay: (§1) GSK_TCAKS: pIC50 H2C9 Imaging: H9c2 Host Cardiomyocytes. […] Cells were then washed once with PBS before infection. T. cruzi trypomastigotes, collected at days 5 to 8 after infection from LLC-MK2 parasite infected cultures, were allowed to swim out for 4h at 37C from a centrifuged pellet (2,500 rpm/10 min/room temperature). Trypomastigotes were then collected and counted in a CASY Cell Counter. Trypomastigotes, in supplemented DMEM, were added to H9c2 cultures in a multiplicity of infection of 1 and incubated for 18 h. Cells were washed once with PBS before incubation of the infected H9c2 monolayer with trypsin (Life-Technologies) to detach cells from the flask. Cells were counted in a CASY Cell Counter using a 150 um capillary and their density set at 5 * 10^4 cells per mL in supplemented assay DMEM. Infected H9c2 were dispensed into 384-well poly-lysine coated assay plates at 50uL per well using a Multidrop Combi dispenser. After seeding them, the plates were incubated at 37C, 5% CO2 for 72h. Cultures were then fixed and stained by addition of 50 uL of a solution containing 8% formaldehyde and 4 uM DRAQ5 DNA dye (BioStatus, UK) per well. […] Five images were collected per well for reliable statistical analysis. Automated image analysis was performed with a script developed on Acapella High Content Imaging and Analysis Software (PerkinElmer). Output: Number of H9c2 Host Cardiomyocytes nuclei to determine drug-related cytotoxicity.; type: functional, organism-based, Rattus norvegicus; conditions: H9c2, 4 h
[2] = test system: Trypanosoma cruzi; assay: as §1, with “Trypanosoma cruzi” for “H2C9”, “Amastigotes/Cell.” for “H9c2 Host Cardiomyocytes.”, “number” for “Number”, “amastigotes per cell as infection level measurement.” for “H9c2 Host Cardiomyocytes nuclei to determine drug-related cytotoxicity.”; type: functional, organism-based, Rattus norvegicus; conditions: H9c2, 4 h
[3] = GSK_TCAKS: pIC50 HepG2 human cell line viability assay using luminiscence. […] Seeding density was checked to ensure that new mono-layers were not more than 50% confluent at the time of harvesting. Cell suspension was added to 500 mL of the same medium at a final density of 1.2 * 10^5 cells/mL. This cell suspension was dispensed (25 uL, 3000 cells per well) into 384-well clear-bottom plates using a Multidrop Combi dispenser. Prior to addition of the cell suspension, the screening compounds (250 nL) were pre-dispensed into the plates with an Echo liquid handler. Plates were incubated for 48 h at 37C, 5% CO2. After incubation, plates equilibrated at room temperature for 30 min before proceeding to develop the luminescent signal. The signal developer, CellTiter-Glo Reagent, was allowed to equilibrate at room temperature for 30 min and added to the plates (25uL per well) using a Multidrop Combi dispenser. Plates were left for 10 min at room temperature for stabilization and then read using a ViewLux.; type: toxicity, cell-based
[4] = test system: Trypanosoma brucei brucei; assay: GSK_TCAKS: pIC50 Trypanosoma brucei viability assay using luminiscence. Assay plates (1536-well) were prepared. T. brucei cultures were harvested and counted in a CASY cell counter. A parasite suspension was prepared at a final concentration of 5 * 10^4 cells/mL in complete HMI9 medium and 6uL was dispensed to all wells containing compounds using a Multidrop Combi dispenser. 6uL of HMI9 media with 0.4% DMSO were dispensed to control columns. Plates were incubated for 24 h at 37C, 5% CO2 then tempered for 10 min at room temperature. ATP content was quantified by adding 4 uL of CellTiter-Glo Reagent (Promega) according to the manufacturer's instructions. Luminescence was measured using a ViewLux.; type: functional, organism-based; conditions: Lister 427, CASY
[5] = test system: Leishmania donovani; assay: GSK_TCAKS: pIC50 Leishmania donovani Imaging: Amastigotes/Macrophages. Assay plates (384-well) were prepared by adding 250nL of compound to each well. For single shot assay, the final compound concentration was 5 uM. […] Automated image analysis was performed with a script developed on Acapella High Content Imaging and Analysis Software (PerkinElmer). Output: Average number of amastigotes per macrophage cell were reported for each well.; type: functional, organism-based, Homo sapiens; conditions: THP-1
[6] = target: Sterol 14-alpha demethylase (Trypanosoma cruzi (strain CL Brener), UniProt Q7Z1V1); assay: GSK_TCAKS: pIC50 CYP51 from Trypanosoma cruzi.; type: functional
Chain of Sterol 14-alpha demethylase (Q7Z1V1 whole entry): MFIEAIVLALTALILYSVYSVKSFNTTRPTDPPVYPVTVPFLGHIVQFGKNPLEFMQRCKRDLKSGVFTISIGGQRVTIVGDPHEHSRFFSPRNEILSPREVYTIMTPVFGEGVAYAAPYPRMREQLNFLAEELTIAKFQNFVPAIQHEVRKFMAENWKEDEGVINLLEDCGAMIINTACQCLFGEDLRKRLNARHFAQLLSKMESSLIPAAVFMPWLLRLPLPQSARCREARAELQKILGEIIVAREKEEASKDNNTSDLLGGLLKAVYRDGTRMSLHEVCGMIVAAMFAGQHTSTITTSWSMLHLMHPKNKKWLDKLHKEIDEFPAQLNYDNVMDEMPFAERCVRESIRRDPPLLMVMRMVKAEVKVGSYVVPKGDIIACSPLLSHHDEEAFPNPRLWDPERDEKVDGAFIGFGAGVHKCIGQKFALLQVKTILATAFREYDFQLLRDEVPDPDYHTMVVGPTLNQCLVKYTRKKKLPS

[7] = test system: Leishmania donovani; assay: GSK_TCAKS: pIC50 Leishmania donovani viability assay using fluorescence intensity. Assay plates (1536-well) were prepared by adding 30nL per well of compound. For single shot assay, the final compound concentration was 5uM. […] Briefly, eGFP LdBOB axenic amastigotes were harvested, fixed and counted in a CASY cell counter (Roche-Applied Science). A final concentration of 1.5 * 10^5 cells per well were prepared in amastigote media containing 500 U/mL penicillin/streptomycin (Invitrogen) and 6uL was dispensed to each experimental well using a Multidrop Combi dispenser (Thermo Scientific). 6uL of assay media was dispensed to control columns used as reference for 100% compound response. Following incubation for 72 h at 37C, 5% CO2, 2 uL of resazurin was added to each well at a final concentration of 0.5 mM in phosphate buffered saline (PBS) with IGEPAL (Sigma-Aldrich), 0.05% (v/v).; type: functional, organism-based
[8] = test system: Leishmania donovani; assay: GSK_TCAKS: pIC50 Leishmania donovani Imaging: THP-1 Host Macrophages. Assay plates (384-well) were prepared by adding 250nL of compound to each well. For single shot assay, the final compound concentration was 5 uM. […] Automated image analysis was performed with a script developed on Acapella High Content Imaging and Analysis Software (PerkinElmer). Output: THP-1 cell count were reported for each well.; type: functional, organism-based, Homo sapiens
[9] = test system: Trypanosoma cruzi; assay: GSK_TCAKS: pIC50 Trypanosoma cruzi viability assay using beta-GAL activity. This assay was run at single shot at 5uM compound concentration per well. The biological reagents consisted of NIH-3T3 host cells and trypomastigotes parasitic cells; both cell types were set to a 3.3 * 10^5 cells/mL dilution in assay DMEM by means of a CASY cell counter device using a 60um capillary. 6 uL of the mixture were dispensed per well (about 1 * 10^3 host-cells and 1 * 10^3 parasites) with a Multidrop Combi dispenser. […] In all wells, the percentage of DMSO never exceeded 0.5%. Plates incubated for four days at 37C, 5% CO2. The substrate used for the assay fluorescence intensity (FLINT) readout was resorufin-beta-D-galactopiranoside (Sigma-Aldrich) at 5uM per well. It was diluted in PBS supplemented with the soft detergent Igepal (Fluka).; type: functional, organism-based, Mus musculus; conditions: Tulahuen, NIH3T3
[10] = test system: Trypanosoma brucei brucei; assay: GSK_TCAKS: pIC50 Trypanosoma brucei viability assay using fluorescence intensity. Assay plates (1536-well) were prepared by dispensing 25nL of compound solution per well using an Echo acoustic dispenser (Labcyte).; type: functional, organism-based; conditions: Lister 427, 2 h
[11] = test system: Leishmania donovani; assay: GSK_TCAKS: pIC50 Leishmania donovani Imaging: Infected Macrophages. Assay plates (384-well) were prepared by adding 250nL of compound to each well. For single shot assay, the final compound concentration was 5 uM. […] Automated image analysis was performed with a script developed on Acapella High Content Imaging and Analysis Software (PerkinElmer). Output: Percent of infected macrophage cells were reported for each well.; type: functional, organism-based, Homo sapiens; conditions: THP-1
[12] = test system: Trypanosoma cruzi; assay: as §1, with “Trypanosoma cruzi” for “H2C9”, “Infected Cells.” for “H9c2 Host Cardiomyocytes.”, “percentage” for “Number”, “infected cells per well as a second infection marker.” for “H9c2 Host Cardiomyocytes nuclei to determine drug-related cytotoxicity.”; type: functional, organism-based, Rattus norvegicus; conditions: H9c2, 4 h

Row | Compound | IC50 [1] [µM] | IC50 [2] [µM] | IC50 at 48 h [3] [µM] | IC50 [4] [µM] | IC50 [5] [µM] | IC50 [6] [µM] | IC50 [7] [µM] | IC50 [8] [µM] | IC50 [9] [µM] | IC50 [10] [µM] | IC50 [11] [µM] | IC50 [12] [µM]
1 | O=C(N[C@H](CO)c1ccccc1)c1ccc(-c2c[nH]c3nccc(C(F)(F)F)c23)s1 | 12.6 | 10 | 63.1 | 0.398 | 15.8 | 6.31 | 31.6 | 12.6 | 7.94 | 0.158 | 25.1 | 10
2 | COCc1cc(Nc2ccc(Cl)cc2)nc(-c2ccccn2)n1 | 1.26 | 2.51 | 12.6 | > 39.8 | 0.794 | > 100 | 2.51 | 20 | 1.58 | 20 | 1.26 | 5.01
3 | CN(C)Cc1cccc(Nc2nccc(-c3ccc(NCCN)c(C#N)c3)n2)c1 | 2 | 1.58 | 25.1 | 0.2 | 0.501 | 6.31 | 2.51 | 6.31 | 1 | 0.0501 | 1.26 | 10
4 | OCC1CCCCN1c1cc(-c2ccccn2)nc(Nc2ccccc2)n1 (configuration not stated) | 0.501 | 2 | 31.6 | 6.31 | 1 | 79.4 | 3.16 | 20 | 0.794 | 5.01 | 1.26 | 3.98
5 | COc1cc(F)c2ncc(F)c(CCN3CC[C@H](NCc4cc5c(cn4)OCS5)[C@@H](O)C3)c2c1 | > 50.1 | 0.2 | 50.1 | 0.501 | 12.6 | 31.6 | 25.1 | 15.8 | 0.398 | 0.251 | 15.8 | 0.251
6 | Oc1cccnc1-c1nc(Cc2ccccc2)n[nH]1 | 15.8 | 6.31 | 79.4 | 10 | 2 | > 100 | 2 | 15.8 | 6.31 | 5.01 | 3.16 | 7.94
7 | COc1ccc([N+](=O)[O-])cc1NC(=O)c1cc(Cl)ccc1O | > 50.1 | 7.94 | 10 | 25.1 | 1.58 | > 100 | 7.94 | 10 | 31.6 | 25.1 | 2 | 15.8
8 | Cc1nn(-c2nc(N)nc(-c3ccccn3)n2)c(N)c1-c1ccccc1 | 12.6 | 1.26 | 63.1 | 6.31 | 2 | > 100 | 5.01 | 20 | 3.98 | 2 | 3.16 | 5.01
9 | O=C(Nc1cccc(S(=O)(=O)Nc2ccc(Br)cc2)c1)c1ccc([N+](=O)[O-])s1 | 2.51 | 0.1 | 15.8 | 0.398 | 0.794 | 2.51 | 0.794 | 10 | 0.1 | 0.2 | 1 | 0.126
10 | O=C(Nc1ccccc1C(=O)Nc1ccccn1)c1ccco1 | > 50.1 | > 50.1 | > 100 | 0.501 | > 50.1 | > 100 | > 50.1 | > 50.1 | > 50.1 | 0.251 | > 50.1 | > 50.1
11 | Cc1ccc(-c2csc(NC(=O)C=Cc3ccc(S(=O)(=O)N4CCOCC4)cc3)n2)o1 | 31.6 | 10 | > 100 | 5.01 | 0.794 | 20 | 6.31 | > 50.1 | 7.94 | 3.16 | 5.01 | 10
